# From PubChem BioAssay (NCI)
# Values joined by “and” are separate entries in the source; they are usually repeats but may differ in a detail not shown here. Identical values can stand only once.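 Protocol summary: plate cells (96-well), add compound at 5 concentrations, incubate 48 h, interpolate endpoints linearly. GI50 is the concentration that inhibits growth by half. Definition used: TGI = concentration required for complete inhibition of growth.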
# Experiments:
# Test in all cases: growth of human tumour cells (NCI), 48 h
# [1] = test system: SK-MEL-5 melanoma
# [2] = test system: SR leukemia
# [3] = test system: SN12C renal
# [4] = test system: SF-539 CNS
# [5] = test system: 786-0 renal
# [6] = test system: M14 melanoma
# [7] = test system: MCF7 breast
# [8] = test system: HS 578T breast
# [9] = test system: SF-295 CNS
# [10] = test system: UACC-62 melanoma
SMILES,GI50 [1],TGI [1],GI50 [2],TGI [2],GI50 [3],TGI [3],GI50 [4],TGI [4],GI50 [5],TGI [5],GI50 [6],TGI [6],GI50 [7],TGI [7],GI50 [8],TGI [8],GI50 [9],TGI [9],GI50 [10],TGI [10]
COc1ccc(N=Nc2ccc(O)c(=O)cc2)cc1,3.34 µM,16.2 µM,3.79 µM,> 100 µM,2.82 µM,> 100 µM,3.16 µM,11.5 µM,3.07 µM,> 100 µM,2.22 µM,7.42 µM,3.4 µM,> 100 µM,4.41 µM,> 100 µM,3.79 µM,> 100 µM,2.11 µM,5.12 µM
O=C1CCc2cc(Br)ccc2O1,–,> 100 µM,–,> 100 µM,–,> 100 µM,–,> 100 µM,–,> 100 µM,–,> 100 µM,–,> 100 µM,–,> 100 µM,–,> 100 µM,–,> 100 µM
NS(=O)(=O)c1ccc(N=Nc2c(O)[nH]c3ccc(C(=O)NCCCn4ccnc4)cc23)cc1,> 25 µM,> 25 µM,> 25 µM,> 25 µM,> 25 µM,> 25 µM,> 25 µM,> 25 µM,> 25 µM,> 25 µM,> 25 µM,> 25 µM,> 25 µM,> 25 µM,> 25 µM,> 25 µM,> 25 µM,> 25 µM,> 25 µM,> 25 µM
CC[C@]12C=CCN3CC[C@]4(C(=C(C(=O)OC)C1)Nc1cc5c(cc14)[C@@H]1[C@H](O5)[C@@H](O)[C@@]4(CC)CC(C(=O)OC)=C5Nc6ccccc6[C@@]56CCN1[C@@H]46)[C@@H]32,0.662 µM and 0.348 µM,4.01 µM and 1.48 µM,0.0922 µM and 0.146 µM,25 µM and > 100 µM,0.464 µM and 0.499 µM,25 µM and 33.5 µM,0.15 µM and 0.339 µM,3.74 µM and 7.05 µM,0.252 µM and 0.383 µM,10 µM and 33.6 µM,0.517 µM and 0.385 µM,25 µM and > 100 µM,0.144 µM and 0.275 µM,25 µM and 26.6 µM,0.344 µM and 0.218 µM,25 µM and > 100 µM,1.17 µM and 0.535 µM,25 µM and 12.8 µM,0.137 µM and 0.158 µM,–
CC(=O)OC1C(O)C(C)OC(OC2C(OC(=O)C3CCC4C(C3)OC3(CC(OC(=O)/C=C/c5ccccc5)C(C)CO3)C43CO3)OC(C)C(O)C2OC(C)=O)C1O (centres undefined),–,0.0155 µM,–,> 2.5 µM,–,0.125 µM,–,0.0285 µM,–,0.132 µM,–,0.0293 µM,–,0.0825 µM,–,0.00669 µM,–,0.145 µM,–,0.0382 µM
c1cc[n+](Cc2c3ccccc3cc3c2ccc2ccccc23)cc1,1.77 µM,3.89 µM,2.64 µM,11.6 µM,0.506 µM,4.73 µM,2.55 µM,10.5 µM,4.83 µM,26.1 µM,5.05 µM,19.7 µM,3.25 µM,13.2 µM,1.96 µM,8.65 µM,3.42 µM,23.2 µM,1.92 µM,3.93 µM
CCOC(=O)c1c(-c2ccccc2)n2c(=O)cc(C)c3c(O)c(O)cc1c32,4.44 µM,16.9 µM,3.59 µM,17.5 µM,10.8 µM,35.1 µM,4.56 µM,25.1 µM,11.7 µM,53.7 µM,5.84 µM,20.2 µM,3.28 µM,13.4 µM,14.7 µM,56.6 µM,6.75 µM,> 100 µM,7.94 µM,20.9 µM
Cn1cc(-c2csc(-c3ccccc3)n2)c2cccnc21,13.7 µM,26.6 µM,9.24 µM,62.4 µM,15 µM,28.2 µM,14.2 µM,28.3 µM,14.4 µM,28.2 µM,13.9 µM,27.8 µM,12.6 µM,33.8 µM,11.8 µM,35.5 µM,15 µM,33.7 µM,12.3 µM,25.5 µM
Cc1c(O)cccc1C(=O)N[C@@H](CSc1ccccc1)[C@H](O)CN1C[C@H]2CCCC[C@H]2C[C@H]1C(=O)NC(C)(C)C,3.12 µM and 5.11 µM,13.5 µM and 11.7 µM,2.21 µM,5.48 µM,4.07 µM and 6.63 µM,12.6 µM and 18.3 µM,6.35 µM and 5.55 µM,22.2 µM and 16.2 µM,3.8 µM and 5.87 µM,16.4 µM and 16 µM,4.45 µM and 5.2 µM,16.4 µM and 15.4 µM,6.22 µM and 3.9 µM,24.4 µM and 15.7 µM,4.82 µM and 4.87 µM,> 58 µM and 20.3 µM,2.53 µM and 3.49 µM,6.97 µM and 25.5 µM,5.79 µM and 5.8 µM,18.8 µM and 17.6 µM
COc1ccccc1CNCCCN1C(=O)c2ccc3c4c(ccc(c24)C1=O)C(=O)N(CCCNCCCCNCCCN)C3=O,0.159 µM,0.302 µM,0.322 µM,> 23.2 µM,0.319 µM,1.5 µM,0.426 µM,1.67 µM,1.03 µM,3.78 µM,0.645 µM,2.08 µM,0.2 µM,0.466 µM,1.34 µM,5.49 µM,1.06 µM,6.79 µM,0.362 µM,1.69 µM
CS(=O)(=O)N1CCC(Nc2ncc(C(=O)c3c(F)cccc3F)c(N)n2)CC1,7.65 µM,> 25 µM,3.79 µM,> 18.5 µM,12.3 µM,> 25 µM,9.36 µM,> 25 µM,12.6 µM,> 25 µM,19.4 µM,> 25 µM,2.11 µM,> 25 µM,15.1 µM,> 25 µM,11.2 µM,> 25 µM,12.6 µM,> 25 µM
CCOc1cc(Cl)c(C(C)NC(=O)c2cccc(OC)c2)cc1OCC (centres undefined),7.39 µM,24.6 µM,3.92 µM,> 100 µM,28.9 µM,> 100 µM,5.01 µM,34.3 µM,20.5 µM,> 100 µM,5.39 µM,> 100 µM,4.6 µM,> 100 µM,11.8 µM,> 100 µM,5.99 µM,> 84.5 µM,8.81 µM,> 100 µM
CC(C)c1cnc(-c2cc(Cl)ccc2F)cc1Nc1ccncc1C(=O)NC(CO)CO,14.2 µM,27.5 µM,16.2 µM,53.7 µM,8.13 µM,23.7 µM,15 µM,29.9 µM,14.1 µM,37.1 µM,17.8 µM,39 µM,11.6 µM,27.3 µM,7.31 µM,30.6 µM,13.1 µM,26.6 µM,15.1 µM,29 µM
